What all share (format): cell-based
The test system of assay [1] is HER3ss-Gluc. As to the kind of experiment: HER3ss assay. The settings on record: HEK-293T T-rex cells, transient transfection, doxycycline, 24 h; read-out: HER3 ss IC50. The method in brief: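 HEK-293T T-REx cells were transiently transfected with HER3 signal sequence (plus four mature-domain residues) fused upstream of mature Gaussia luciferase. Cells were induced with doxycycline (1 μg/ml) and exposed to increasing compound concentrations for 24 h, then secreted luciferase in the conditioned medium was read by luminescence.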

In assay [2] the test system is PD1-ss+10aa/Gaussia Luciferase. As to the kind of experiment: Dox induced PD1-ss-Gluc assay. The settings on record: Flp-In 293 T-REx cells, doxycycline, 24 hours; read-out: PD1ss Gluc IC50. In outline:
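Stable Flp-In 293 T-REx line expressing doxycycline-inducible Gaussia luciferase fused to the PD1 signal sequence plus 10 amino acids. Cells plated the day before, then exposed to compound dilutions in DMSO/media containing doxycycline at 37 °C, 5% CO2.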

For assay [3], the system named is JJN3 plasma cell leukemia cell line. Put plainly: JJN-3 assay (Alamar blue). The settings on record: Homo sapiens, 72 h. In outline:
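For both lines, 5000 cells/well were exposed to compound or a 1% DMSO-medium control for 72 h unless otherwise specified. Signal was normalized to the DMSO control.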
In general terms: Alamar Blue is a resazurin reagent that responds to reducing activity.

For assay [4], the system named is NCI-H929 multiple myeloma cell line. As to the kind of experiment: H929 assay (cell viability, Celltiter-Glo). The settings on record: Homo sapiens, NCI-H929; 48 hours, cell viability; read-out: H929 EC50. In outline:
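Cells plated in RPMI 1640 with 10% FBS and 2 mM glutamine, treated with compound dilutions in DMSO/media. Incubation 48 h at 37° C, 5% CO2. Viability from luciferase luminescence signal.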

Assay [5] has as its system U266B1 multiple myeloma cell line. Put plainly: U266 assay (cell viability, Celltiter-Glo). The settings on record: Homo sapiens, U-266; 48 hours, cell viability. As for the experimental part: Cells were plated in 384-well tissue culture plates and treated with compound dilutions in DMSO/media. Plates were incubated at 37° C., 5% CO2 for 48 hours. After 48 hours, Celltiter-Glo@ (Promega) was added to each well and luciferase signal was quantified using Tecan Infinite M1000 Pro for cell viability determination.
Background: ATP-based viability assays read luminescence as a measure of living cells.

Assay [6] deals with TNFα-FL/Gaussia Luciferase. Put plainly: Dox induced TNFα-FL-Gluc assay. The settings on record: Flp-In 293 T-REx cells, doxycycline, 24 hours; read-out: TNFa FL Gluc IC50. In outline:
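Stable Flp-In 293 T-REx line expressing full-length TNFα (aa 1-233) fused at its C-terminus to Gaussia luciferase under doxycycline-inducible control. Cells plated the day before, then given compound dilutions in DMSO/media containing doxycycline and incubated at 37 °C, 5% CO2.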

For assay [7], the system named is Prl-ss+10aa/Gaussia Luciferase. As to the kind of experiment: Prl-ss-Gluc assay (constitutively active or 24 hr Dox inducible). The settings on record: Flp-In 293 T-REx cells, 24 hours; read-out: Prl IC50. In outline: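 Stable Flp-In 293 T-REx lines express Prl signal sequence+10aa fused to Gaussia luciferase, either constitutively (pcDNA5/FRT) or under the T-REx promoter (pcDNA5/FRT/TO). Cells plated the day before; compounds in DMSO/media (with doxycycline for the inducible line, 24 h) incubated at 37 °C, 5% CO2.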

The subject of assay [8] is VCAMss+10aa/Gaussia Luciferase. As to the kind of experiment: VCAM-ss-Gluc assay (constitutively active or Dox induced). The settings on record: Flp-In 293 T-REx cells, 24 hours. In outline:
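Stable cell lines secreting a VCAM signal sequence+10aa/Gaussia luciferase fusion, expressed either constitutively or under T-REx doxycycline control. Cells plated the day before; compound dilutions in DMSO/media (with doxycycline for the induced line) added and incubated at 37° C, 5% CO2.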

Assay [9] has as its system BT474 breast tumor cell line. Put plainly: BT474 assay (Alamar blue). The settings on record: Homo sapiens, BT-474, 72 h. As for the experimental part: BT474 is a human breast tumor cell line. JJN3 is a human plasma cell leukemia cell line. […] Cells were seeded at 100 000 cells/mL. Aliquots of 5000 cells (50 μL) were added to each well in black, clear bottom 96-well plates. Compounds or control (50 uL of 1% DMSO in cell culture medium) were added to the cells to the indicated final concentrations and cells were incubated for 72 h (unless otherwise specified). After incubation was complete, Alamar blue (10 uL of a 1 mg/mL solution) was added to each well and plates were incubated for 5 h. Fluorescence was then measured (excitation 545 nm, emission 590 nm) and is reported as […] normalized to DMSO control.

Square brackets hold non-standard residues; d marks the D form. Peptide text beside a SMILES is read from it. NMeTrp(1-(4-Br-benzyl)) = CN[C@@H](Cc1cn(Cc2ccc(Br)cc2)c2ccccc12)C(=O)O; Butanoyl(2R-oxy,4-CN) = N#CCC[C@@H](O)C(=O)O; Ala(cPr) = N[C@@H](CC1CC1)C(=O)O; NMeL = CN[C@@H](CC(C)C)C(=O)O; NMeA = CN[C@@H](C)C(=O)O

Usually IC50 stands for the concentration that gives 50% inhibition. By EC50 is commonly meant the concentration giving half of the maximal effect. Turning to `CC(C)C[C@@H]1NC(=O)[C@H](Cc2cn(Cc3ccc(Br)cc3)c3ccccc23)N(C)C(=O)[C@H](CC(C)C)NC(=O)[C@H](CC(C)C)N(C)C(=O)[C@H](CC(C)C)NC(=O)[C@@H](CCC#N)OC(=O)[C@H](C)N(C)C1=O` [C-14] (HELM PEPTIDE1{L.[meA].[N#CCC[C@@H](O[*:1])C(=O)[*:2]].L.[meL].L.[CN([C@@H](Cc1cn(Cc2ccc(Br)cc2)c2ccccc12)C(=O)[*:2])[*:1]]}$PEPTIDE1,PEPTIDE1,1:R1-7:R2$$$V2.0), the IC50 in assay [1] turned out to be 51 nM; in [2], 18 nM; in assay [6], 108 nM; in assay [7] it was 361 nM; in assay [8], 492 nM. For the same compound, the concentration giving a half-maximal response (EC50) is 235 nM in [3], 1280 nM in [4], 8000 nM in [5] and 850 nM in assay [9].

As for `Cc1cc(Cn2cc(C[C@H]3C(=O)N[C@@H](CC(C)C)C(=O)N(C)[C@@H](C)C(=O)O[C@H](CCC#N)C(=O)N[C@@H](CC(C)C)C(=O)N(C)[C@@H](CC(C)C)C(=O)N[C@@H](CC(C)C)C(=O)N3C)c3ccccc32)no1` [C-15] (HELM PEPTIDE1{L.[meA].[N#CCC[C@@H](O[*:1])C(=O)[*:2]].L.[meL].L.[Cc1cc(Cn2cc(C[C@@H](C(=O)[*:2])N(C)[*:1])c3ccccc32)no1]}$PEPTIDE1,PEPTIDE1,1:R1-7:R2$$$V2.0), the IC50 came out at 284 nM in assay [1]; 475 nM in assay [2]; 4700 nM in [6]; 6450 nM in assay [7]; 4010 nM in assay [8]. In addition, the concentration for a half-maximal effect (EC50) in assay [3] was found to be 4860 nM; in [4], 5930 nM; in assay [5], 20200 nM; in assay [9] it was 2620 nM.

With `COc1cc(Cn2cc(C[C@H]3C(=O)N[C@@H](CC(C)C)C(=O)N(C)[C@@H](C)C(=O)O[C@H](CCC#N)C(=O)N[C@@H](CC(C)C)C(=O)N(C)[C@@H](CC(C)C)C(=O)N[C@@H](CC(C)C)C(=O)N3C)c3ccccc32)ccc1F` [C-27] (HELM PEPTIDE1{L.[meA].[N#CCC[C@@H](O[*:1])C(=O)[*:2]].L.[meL].L.[COc1cc(Cn2cc(C[C@@H](C(=O)[*:2])N(C)[*:1])c3ccccc32)ccc1F]}$PEPTIDE1,PEPTIDE1,1:R1-7:R2$$$V2.0), the IC50 in [1] came to 101 nM; in assay [2] it was 57 nM; in assay [6] it was 234 nM; in [7], 856 nM; in assay [8], 140 nM. Besides, the EC50 in assay [3] is 319 nM; in assay [4], 1680 nM; in [5] it was 17300 nM; in assay [9], 2140 nM.

In the case of `CC(C)C[C@@H]1NC(=O)[C@H](Cc2cn(Cc3ccc(C(F)(F)F)cc3)c3ccccc23)N(C)C(=O)[C@H](CC(C)C)NC(=O)[C@H](CC(C)C)N(C)C(=O)[C@H](CC(C)C)NC(=O)[C@@H](CCC#N)OC(=O)[C@H](C)N(C)C1=O` [C-42] (HELM PEPTIDE1{L.[meA].[N#CCC[C@@H](O[*:1])C(=O)[*:2]].L.[meL].L.[CN([C@@H](Cc1cn(Cc2ccc(C(F)(F)F)cc2)c2ccccc12)C(=O)[*:2])[*:1]]}$PEPTIDE1,PEPTIDE1,1:R1-7:R2$$$V2.0), the IC50 in assay [2] came out at 37 nM; in assay [6], 357 nM; in [7], 5470 nM; in [8], 167 nM. The 50% effective concentration (EC50) in assay [3] amounted to 894 nM; in assay [4] it was 3950 nM; in assay [5], 19900 nM; in assay [9], 3300 nM.

For `COc1cccc(Cn2cc(C[C@H]3C(=O)N[C@@H](CC(C)C)C(=O)N(C)[C@@H](C)C(=O)O[C@H](CCC#N)C(=O)N[C@@H](CC(C)C)C(=O)N(C)[C@@H](CC(C)C)C(=O)N[C@@H](CC(C)C)C(=O)N3C)c3ccccc32)c1` [C-13] (HELM PEPTIDE1{L.[meA].[N#CCC[C@@H](O[*:1])C(=O)[*:2]].L.[meL].L.[COc1cccc(Cn2cc(C[C@@H](C(=O)[*:2])N(C)[*:1])c3ccccc32)c1]}$PEPTIDE1,PEPTIDE1,1:R1-7:R2$$$V2.0), the IC50 in assay [1] is 69 nM; in [2], 30 nM; in assay [6], 118 nM; in [7], 1900 nM; in assay [8] it was 1030 nM. Besides, the EC50 in assay [3] stood at 192 nM; in [4], 830 nM; in assay [5] it was 17000 nM; in assay [9] it was 1360 nM.

For the compound `Cc1cccc(Cn2cc(C[C@H]3C(=O)N[C@@H](CC(C)C)C(=O)N(C)[C@@H](C)C(=O)O[C@H](CCC#N)C(=O)N[C@@H](CC(C)C)C(=O)N(C)[C@@H](CC(C)C)C(=O)N[C@@H](CC(C)C)C(=O)N3C)c3ccccc32)n1` [C-33] (HELM PEPTIDE1{L.[meA].[N#CCC[C@@H](O[*:1])C(=O)[*:2]].L.[meL].L.[Cc1cccc(Cn2cc(C[C@@H](C(=O)[*:2])N(C)[*:1])c3ccccc32)n1]}$PEPTIDE1,PEPTIDE1,1:R1-7:R2$$$V2.0), the IC50 turned out to be 216 nM in assay [1]; 385 nM in assay [2]; 1360 nM in assay [6]; 6030 nM in assay [7]; 240 nM in assay [8]. The EC50 in [3] was found to be 1480 nM; in [4] it was 4250 nM; in assay [5], 8880 nM; in assay [9], 4190 nM.

`CC(C)C[C@@H]1NC(=O)[C@H](Cc2cn(Cc3ccc(Br)cc3)c3ccccc23)N(C)C(=O)[C@H](CC(C)C)NC(=O)[C@H](CC(C)C)N(C)C(=O)[C@H](CC2CC2)NC(=O)[C@@H](CCC#N)OC(=O)[C@H](C)N(C)C1=O` [C-38] (cyclo([Ala(cPr)][NMeL]L[NMeTrp(1-(4-Br-benzyl))]L[NMeA][Butanoyl(2R-oxy,4-CN)])): the IC50 turned out to be 317 nM in [1]; 105 nM in assay [2]; 389 nM in assay [6]; 6110 nM in assay [7]; 320 nM in [8]. In addition, the concentration for a half-maximal effect (EC50) was 957 nM in [3], 3700 nM in [4] and 3880 nM in assay [9].

For the compound `CC(C)C[C@@H]1NC(=O)[C@H](Cc2cn(Cc3ccc(F)nc3)c3ccccc23)N(C)C(=O)[C@H](CC(C)C)NC(=O)[C@H](CC(C)C)N(C)C(=O)[C@H](CC(C)C)NC(=O)[C@@H](CCC#N)OC(=O)[C@H](C)N(C)C1=O` [C-36] (HELM PEPTIDE1{L.[meA].[N#CCC[C@@H](O[*:1])C(=O)[*:2]].L.[meL].L.[CN([C@@H](Cc1cn(Cc2ccc(F)nc2)c2ccccc12)C(=O)[*:2])[*:1]]}$PEPTIDE1,PEPTIDE1,1:R1-7:R2$$$V2.0), the concentration for half-maximal inhibition (IC50) in assay [1] was 345 nM; in assay [2], 94 nM; in assay [6] it was 358 nM; in assay [7] it was 1090 nM; in [8], 351 nM. The half-maximal effective concentration (EC50) in assay [3] is 289 nM; in assay [4], 2870 nM; in assay [9] it was 1540 nM.

`CC(C)C[C@@H]1NC(=O)[C@H](Cc2cn(Cc3ccc(F)cc3)c3ccccc23)N(C)C(=O)[C@H](CC(C)C)NC(=O)[C@H](CC(C)C)N(C)C(=O)[C@H](CC(C)C)NC(=O)[C@@H](CCC#N)OC(=O)[C@H](C)N(C)C1=O` [C-12] (HELM PEPTIDE1{L.[meA].[N#CCC[C@@H](O[*:1])C(=O)[*:2]].L.[meL].L.[CN([C@@H](Cc1cn(Cc2ccc(F)cc2)c2ccccc12)C(=O)[*:2])[*:1]]}$PEPTIDE1,PEPTIDE1,1:R1-7:R2$$$V2.0): the IC50 came to 31 nM in [1]; 8 nM in assay [2]; 44 nM in assay [6]; 1110 nM in [7]; 230 nM in assay [8]. The 50% effective concentration (EC50) came out at 71 nM in assay [3], 740 nM in [4], 6960 nM in [5] and 627 nM in assay [9].

The values above are taken from patent US11339193B2, “CDP protein secretion inhibitors” (KEZAR LIFE SCIENCES, priority 2018, dated 2022).
